The numbers were not newly measured in US20100092397A1, “Method For Treatment of COPD and Other Pulmonary Diseases” (Activaero GmbH, priority 2008, published 2010), which cites them from elsewhere.

For series [1] the following is noted: systemic (oral or i.v.) administration; levels above this range result in side effects.
Series [2] has as its system subjects with moderate-severe COPD. Conditions: nebulized ADC4022 12.5 mg twice daily plus budesonide 1 mg twice daily for 4 weeks, versus placebo plus budesonide.

Take `Cn1c(=O)c2[nH]cnc2n(C)c1=O` [Theophylline, theophylline]: in series [1], the “recommended effective range, plasma level” value was 10 to 20 mg/L.

Consider `Cn1c(=O)c2[nH]cnc2n(C)c1=O` [ADC4022], for which the lung function result in series [2] is “stable”.
